Key:
K-RAS G12C = molecular target: T1, K-RAS G12C (Homo sapiens, UniProt P01116, G12C); assay: Compound depletion assay, K-RAS G12C; type: binding; details: G12C protein 20 μM, compound 8 μM, 25° C.
T1 construct: His tag; purchased Stratech
Procedure, shortened: (§1)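 His-tagged K-RAS (20 μM) in 20 mM HEPES pH 7.5, 150 mM NaCl, 1 mM MgCl2 incubated with 8 μM compound (final) at 25 °C with agitation. At 0, 30, 180, 360, 1440 min, samples were acid/acetonitrile-quenched and remaining free compound quantified by LC-MS/MS against propranolol, as percent of time zero.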

K-RAS G12D = molecular target: T2, K-RAS G12D (Homo sapiens, UniProt P01116, G12D); assay: Compound depletion assay, K-RAS G12D; type: binding; details: G12D protein 20 μM, compound 8 μM, 25° C.
T2 construct: His tag; purchased Stratech
T2 sequence (P01116 1-188 isoform P01116-2 G12D): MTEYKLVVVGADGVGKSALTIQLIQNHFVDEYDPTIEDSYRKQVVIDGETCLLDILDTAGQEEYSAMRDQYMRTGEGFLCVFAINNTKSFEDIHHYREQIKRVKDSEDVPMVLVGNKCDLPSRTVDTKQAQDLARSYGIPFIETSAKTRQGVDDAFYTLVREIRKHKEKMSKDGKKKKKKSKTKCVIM
Procedure, shortened: as §1

T1 sequence (P01116 1-188 isoform P01116-2 G12C): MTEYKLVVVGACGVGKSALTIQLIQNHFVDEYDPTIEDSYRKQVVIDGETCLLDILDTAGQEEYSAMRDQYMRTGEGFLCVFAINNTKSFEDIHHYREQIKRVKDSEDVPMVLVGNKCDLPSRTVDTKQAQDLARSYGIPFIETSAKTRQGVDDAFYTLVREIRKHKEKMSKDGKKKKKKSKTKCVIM

Compound | 30 min Category (compound remaining at timepoint) (K-RAS G12C) | 3 hr Category (compound remaining at timepoint) (K-RAS G12C) | 6 hr Category (compound remaining at timepoint) (K-RAS G12C) | 30 min Category (compound remaining at timepoint) (K-RAS G12D) | 3 hr Category (compound remaining at timepoint) (K-RAS G12D) | 6 hr Category (compound remaining at timepoint) (K-RAS G12D) | 24 hr Category (compound remaining at timepoint) (K-RAS G12C) | 24 hr Category (compound remaining at timepoint) (K-RAS G12D)
C=CC(=O)N1CCN(c2cc(C(=O)Nc3cc(O)cc4ccccc34)nc(NCC3CCCN(C)C3)n2)C[C@@H]1CC#N (stereo partly drawn) [Example 43, 6-[(3S)-3-(cyanomethyl)-4-prop-2-enoyl-piperazin-1-yl]-N-(3-hydroxy-1-naphthyl)-2-[(1-methyl-3-piperidyl)methylamino]pyrimidine-4-carboxamide] | B (30%-70% compound remaining at timepoint) | C (≤30% compound remaining at timepoint) | C (≤30% compound remaining at timepoint) | A (≥70% compound remaining at timepoint) | A (≥70% compound remaining at timepoint) | A (≥70% compound remaining at timepoint) | – | –
C=CC(=O)N1CCN(c2cc(C(=O)N(C)c3cccc4ccccc34)nc(OC[C@@H]3CCCN3C)n2)CC1 [Example 13, N-methyl-2-[[(2S)-1-methylpyrrolidin-2-yl]methoxy]-N-(1-naphthyl)-6-(4-prop-2-enoylpiperazin-1-yl)pyrimidine-4-carboxamide] | – | A (≥70% compound remaining at timepoint) | – | – | A (≥70% compound remaining at timepoint) | – | A (≥70% compound remaining at timepoint) | A (≥70% compound remaining at timepoint)
C=CC(=O)N1CCN(c2cc(C(=O)Nc3cc(O)cc4ccccc34)nc(OC[C@@H]3CCCN3CCO)n2)C[C@@H]1CC#N [Example 53, 6-[(3S)-3-(cyanomethyl)-4-prop-2-enoyl-piperazin-1-yl]-2-[[(2S)-1-(2-hydroxyethyl)pyrrolidin-2-yl]methoxy]-N-(3-hydroxy-1-naphthyl)pyrimidine-4-carboxamide] | C (≤30% compound remaining at timepoint) | C (≤30% compound remaining at timepoint) | C (≤30% compound remaining at timepoint) | A (≥70% compound remaining at timepoint) | A (≥70% compound remaining at timepoint) | A (≥70% compound remaining at timepoint) | – | –
C=CC(=O)N1CCN(c2cc(C(=O)Nc3cc(O)cc4ccccc34)nc(OC[C@@H]3CCCN3CC)n2)C[C@@H]1CC#N [Example 51, 6-[(3S)-3-(cyanomethyl)-4-prop-2-enoyl-piperazin-1-yl]-2-[[(2S)-1-ethylpyrrolidin-2-yl]methoxy]-N-(3-hydroxy-1-naphthyl)pyrimidine-4-carboxamide] | C (≤30% compound remaining at timepoint) | C (≤30% compound remaining at timepoint) | C (≤30% compound remaining at timepoint) | A (≥70% compound remaining at timepoint) | A (≥70% compound remaining at timepoint) | A (≥70% compound remaining at timepoint) | – | –
C=CC(=O)N1CCN(c2cc(C(=O)N3CCOc4ccccc43)nc(OC[C@@H]3CCCN3C)n2)CC1 [Example 16, 1-[4-[6-(2,3-dihydro-1,4-benzoxazine-4-carbonyl)-2-[[(2S)-1-methylpyrrolidin-2-yl]methoxy]pyrimidin-4-yl]piperazin-1-yl]prop-2-en-1-one] | – | A (≥70% compound remaining at timepoint) | – | – | A (≥70% compound remaining at timepoint) | – | A (≥70% compound remaining at timepoint) | A (≥70% compound remaining at timepoint)
C=CC(=O)N1CCN(c2cc(C(=O)Nc3cc(O)cc4ccccc34)nc(-c3cccnc3)n2)C[C@@H]1CC#N [Example 25, 6-[(3S)-3-(cyanomethyl)-4-prop-2-enoyl-piperazin-1-yl]-N-(3-hydroxy-1-naphthyl)-2-(3-pyridyl)pyrimidine-4-carboxamide] | A (≥70% compound remaining at timepoint) | A (≥70% compound remaining at timepoint) | A (≥70% compound remaining at timepoint) | A (≥70% compound remaining at timepoint) | A (≥70% compound remaining at timepoint) | A (≥70% compound remaining at timepoint) | – | –
C=CC(=O)N1CCN(c2cc(C(=O)N3c4ccccc4CCC3C)nc(OC[C@@H]3CCCN3C)n2)CC1 (stereo partly drawn) [Example 15, 1-[4-[6-(2-methyl-3,4-dihydro-2H-quinoline-1-carbonyl)-2-[[(2S)-1-methylpyrrolidin-2-yl]methoxy]pyrimidin-4-yl]piperazin-1-yl]prop-2-en-1-one] | – | A (≥70% compound remaining at timepoint) | – | – | A (≥70% compound remaining at timepoint) | – | A (≥70% compound remaining at timepoint) | A (≥70% compound remaining at timepoint)
C=CC(=O)N1CCN(c2cc(C(=O)Nc3cc(O)cc4ccccc34)nc(OCC3CCCN(C)C3)n2)C[C@@H]1CC#N (stereo partly drawn) [Example 50, 6-[(3S)-3-(cyanomethyl)-4-prop-2-enoyl-piperazin-1-yl]-N-(3-hydroxy-1-naphthyl)-2-[(1-methyl-3-piperidyl)methoxy]pyrimidine-4-carboxamide] | C (≤30% compound remaining at timepoint) | C (≤30% compound remaining at timepoint) | C (≤30% compound remaining at timepoint) | A (≥70% compound remaining at timepoint) | A (≥70% compound remaining at timepoint) | A (≥70% compound remaining at timepoint) | – | –
C=CC(=O)N1CCN(c2cc(C(=O)Nc3cc(O)cc4ccccc34)nc(-c3cccc4cnn(C)c34)n2)C[C@@H]1CC#N [Example 39, 6-[(3S)-3-(cyanomethyl)-4-prop-2-enoyl-piperazin-1-yl]-N-(3-hydroxy-1-naphthyl)-2-(1-methylindazol-7-yl)pyrimidine-4-carboxamide] | A (≥70% compound remaining at timepoint) | B (30%-70% compound remaining at timepoint) | B (30%-70% compound remaining at timepoint) | A (≥70% compound remaining at timepoint) | A (≥70% compound remaining at timepoint) | A (≥70% compound remaining at timepoint) | – | –
